This note sets out measurements from patent US20210060158A1, “AGONIST OF ARYL HYDROCARBON RECEPTOR FOR USE IN CANCER COMBINATION THERAPY” (INSTITUT CURIE, priority 2017, published 2021).

One assay deals with CD14+ monocytes. The assay can be described thus: Human CD14+ monocyte differentiation into mo-DC versus mo-Mac (culture with M-CSF, IL-4 and TNF-α, flow cytometry at day 5). It is filed as cell-based. Conditions: monocytes cultured with M-CSF, IL-4 and TNF-α for 5 days, various doses of compound. As to the method:
(§1) FIG. 2: AHR is a molecular switch for mo-DC versus mo-Mac differentiation. (A-B) CD14^+ monocytes were infected at day 0 with lentivirus containing sh RNA against AHR, or control sh RNA. After 5 days of culture, cells were analyzed by Immuno Blot (A) or by flow cytometry (B). (A) Silencing quantified based on Immuno Blot stainings. (B) Proportions of DC and macrophages in the culture at day 5. Each symbol represents an individual donor (n=6 in 3 independent experiments). *p<0.05. (C) Monocytes were cultured with MCSF, IL-4 and TNF-α for 5 days, in the presence of various concentrations of FICZ (AHR agonist) or SR1 (AHR inhibitor). Proportions of DC and macrophages at day 5. […] (D-E) CD14^+ monocytes were analyzed directly after isolation, or were cultured for 3h in medium alone or with various combinations of MCSF, IL-4, TNF-α, FICZ or SRI. (D) Relative expression of IRF4 and MAFB measured by RT-qPCR. […] (E) Expression of IRF4 and MAFB at the single cell level was measured by fluorescent in situ hybridization coupled to flow cytometry. […]
FIG. 3: AHR acts on mo-DC differentiation through BLIMP-1. […] PRDM1 expression measured by RT-qPCR. […] Total cells were lyzed at different days and analyzed by Immuno Blot. […] After 5 days of culture, cells were analyzed by Immuno Blot (C) or by flow cytometry (D-E). (C) Silencing quantified based on Immuno Blot stainings. […]

Assay [1] concerns IRF4 expression in CD14+ monocytes. Kind of assay: IRF4 and MAFB expression in monocytes after 3 h of culture, RT-qPCR. Conditions: 3 h culture, with IL-4 (FICZ: with IL-4 and TNF-α). It counts as cell-based, human. As to the method: as §1
To decipher how AHR shapes monocyte fate, we assessed IRF4 and MAFB expression in monocytes after 3 h of culture with various combinations of M-CSF, IL-4, TNF-α, SR1 and FICZ (FIG. 2D). We also analyzed the expression of CYP1A1, a known direct target of AHR (Stockinger et al., 2014), as a control for AHR activation. […]

Assay [2] deals with dermal mo-DC and MHC class II+ macrophages. The assay can be described thus: Skin mo-DC and macrophage proportions in mice fed I3C-supplemented diet. Particulars: supplemented diet versus control diet. It counts as in vivo, mouse. The source says:
FIG. 4: AhR is involved in mo-DC differentiation in vivo in the mouse. (A-C) Ear skin from individual AhR^-/- mice or WT littermates (A-B), or C57BL/6 mice fed with an experimental diet supplemented or not with indole-3-carbinol […]) (C), was digested to prepare single-cell suspensions. After gating on live CD45^+CD3^-NK1.1^-CD19^-Ly6G^-CD24^- CD11b^+ cells, cells were separated into 5 subsets based on the expression of Ly6C, CD64, MHC II and CCR2. (A) One representative AhR^-/- and WT mouse is shown. (B-C) Proportions of monocytes, early mo-DC, mo-DC, MHC II^+ macrophages and resident MHC II^- macrophages among Ly6C^+ or CD64^+ cells. Each symbol represents an individual mouse (B n=9 in 2 independent experiments, C n=12 in 2 independent experiments).*p<0.05, **p<0.01. (D-E) Cells from the peritoneal lavage were analyzed by flow cytometry. After gating on live CD115^+CD11b^+ cells, cells were separated into MHCII^+CD226^+ cells and ICAM2^+MHCII^- cells. (D) Cell-sorted cells were analyzed after cytospin and Giemsa/May-Grünwald staining. Bar=10 μm. Representative of 2 independent experiments. (E) C57BL/6 mice fed with an experimental diet supplemented or not with […], and treated or not with a cocktail of antibiotics. […] To address the physiological relevance of our findings, we analyzed the role of AhR in mo-DC and mo-Mac differentiation in vivo in the mouse. […]

The test system of another assay is peritoneal mo-DC. Kind of assay: Peritoneal MHCII+CD226+ mo-DC in antibiotics-treated mice fed I3C-supplemented or control diet. It counts as in vivo, mouse. Conditions: I3C-supplemented versus control diet, peritoneal lavage. The source says: FIG. 4: AhR is involved in mo-DC differentiation in vivo in the mouse. (A-C) Ear skin from individual AhR^-/- mice or WT littermates (A-B), or C57BL/6 mice fed with an experimental diet supplemented or not with indole-3-carbinol […]) (C), was digested to prepare single-cell suspensions. After gating on live CD45^+CD3^-NK1.1^-CD19^-Ly6G^-CD24^- CD11b^+ cells, cells were separated into 5 subsets based on the expression of Ly6C, CD64, MHC II and CCR2. (A) One representative AhR^-/- and WT mouse is shown. (B-C) Proportions of monocytes, early mo-DC, mo-DC, MHC II^+ macrophages and resident MHC II^- macrophages among Ly6C^+ or CD64^+ cells. Each symbol represents an individual mouse (B n=9 in 2 independent experiments, C n=12 in 2 independent experiments).*p<0.05, **p<0.01. (D-E) Cells from the peritoneal lavage were analyzed by flow cytometry. After gating on live CD115^+CD11b^+ cells, cells were separated into MHCII^+CD226^+ cells and ICAM2^+MHCII^- cells. (D) Cell-sorted cells were analyzed after cytospin and Giemsa/May-Grünwald staining. Bar=10 μm. Representative of 2 independent experiments. […] To address whether the decrease of peritoneal mo-DC upon antibiotics treatment was AhR-dependent, we fed antibiotics-treated mice with a […]-supplemented or control diet, and analyzed cells from the peritoneal lavage (FIG. 3E).

The test system of another assay is Treg cells. Kind of assay: Induction of functional Treg cells upon administration. The source says:
The impact of a given AHR agonist on Treg cells may be estimated by exposing purified T cells (typically CD4^+ T cells) in vitro with the said agonist. Treg cells are characterized by expression of the transcription factor Foxp3.

Turning to `CC(C)n1cnc2c(NCCc3ccc(O)cc3)nc(-c3csc4ccccc34)nc21` [SR1, stemregenin-1], in the assay on CD14+ monocytes, the “mo-DC development / proportions at day 5” value is reported as “decreasing” and the “mo-Mac development / proportions at day 5” value was “increased”. Also, in assay [1], the “IL-4-induced IRF4 expression” value is listed as “inhibited”.
For the compound `OCc1c[nH]c2ccccc12` [I3C, indole-3-carbinol], in assay [2], the “MHC class II+ macrophages in the skin” value is recorded as “decreased” and the “mo-DC in the skin” value is on record as “significantly increased”. The “peritoneal mo-DC differentiation in antibiotics-treated mice” value in the assay with peritoneal mo-DC was “restored mo-DC differentiation in antibiotics-treated mice almost up to normal proportions”. For the same compound, the “induction of functional Treg cells” value with Treg cells is “does not induce functional Treg cells”.
